# Publication PMC4475797, “New Activity of a Protein from Canavalia ensiformis” (Scientia Pharmaceutica, 2014)
# Read-outs that look alike come from different tables or passages of the source.
# Columns and labels:
# [1] = molecular target: T1, Concanavalin A (Con A) (Canavalia ensiformis, UniProt P02866); assay: biochemical; format: binding
# T1 construct: purchased Sigma
# Procedure: Fluorescence spectra were recorded with a Shimadzu spectrofluorometer (Japan). The emission spectra of the tryptophan residues were recorded in a 1-cm quartz cell (Hellma Analytics, Germany). To avoid the measurement of the Tyr emission, the protein sample was excited at λ=295 nm with a slit width of 1.0 nm. Total fluorescence was calculated after the normalization of the fluorescence spectra and correction for dilution. In order to normalize the inner filter and self-absorption effects, the excitation was always carried out less than 0.05 OD. The spectra were recorded in a wavelength range of 300–500 nm. All studies were done at 25°C with the temperature of the samples measured in the cuvette with an accuracy of ± 0.2°C.
# The protein-ligand interactions were investigated by monitoring changes in the intrinsic protein fluorescence emission (θexc=295 nm). We applied ideal fluorescence titration and incubation methods for their intrinsic sensitivity and simplicity. For this purpose, Con A (1.8 µM) was incubated at 4°C overnight with increasing concentrations of MnTMPyP, ZnTPPS, and FeTMPyP. […] Applied porphyrin concentrations were consistent with minimizing artifacts due to aggregation phenomena. Con A-adenine interactions were studied by overnight incubation (at 4°C). The obtained experimental data were processed by non-linear and linear regression analysis, computed by a GraphPad Prism program and presented in figures comprising three independent sets of experiments.
# [2] = test system: cancer cell lines (Du-145, HD-LAPC-4, Hep-G2, HI-LAPC-4, LnCAP, PANC-1, and PC-3); set-up: method as in PMID 20735206; settings: combined with an ascorbic acid; cited from earlier work
# [3] = test system: G361 (a human melanoma cell line); set-up: method as in PMID 18645224; settings: G361 cells; cited from earlier work
# [4] = pH 6.8, read-out: Dissociation constants (KD) for the interaction
Compound,effect on Trp fluorescence emission of Con A [1],"Kd [1, 4] [µM]",also measured
"5,10,15,20-Tetrakis(4-sulfonatophenyl)-porphyrin-Au(III)chloride [AuTPPS]",fluorescence quenching,,
"C[n+]1ccc(-c2c3nc(c(-c4cc[n+](C)cc4)c4ccc([n-]4)c(-c4cc[n+](C)cc4)c4nc(c(-c5cc[n+](C)cc5)c5ccc2[n-]5)C=C4)C=C3)cc1.[Fe+3] [FeTMPyP, 5,10,15,20-Tetrakis (N-methyl 4-pyridyl)-porphyrin Fe(III)]",,0.95 ± 0.13,Hill slope (h) [1]: 1.89±0.46; blue shift of the emission maximum [1]: 5 nm
"C[n+]1ccc(-c2c3nc(c(-c4cc[n+](C)cc4)c4ccc([n-]4)c(-c4cc[n+](C)cc4)c4nc(c(-c5cc[n+](C)cc5)c5ccc2[n-]5)C=C4)C=C3)cc1.[Cl-].[Cl-].[Cl-].[Cl-].[Cl-].[Mn+3] [MnTMPyP, 5,10,15,20-Tetrakis (N-methyl-4-pyridyl)-porphyrin-Mn(III)pentachloride]",fluorescence quenching,1.89 ± 0.54,cytotoxic effect [2]: potent synergistic cytotoxic effect
"O=S(=O)([O-])c1ccc(-c2c3nc(c(-c4ccc(S(=O)(=O)[O-])cc4)c4ccc([nH]4)c(-c4ccc(S(=O)(=O)[O-])cc4)c4nc(c(-c5ccc(S(=O)(=O)[O-])cc5)c5ccc2[nH]5)C=C4)C=C3)cc1.[Zn+2].[Zn+2] [ZnTPPS, 5,10,15,20-Tetrakis (4-sulfonatophenyl)-porphyrin-zinc(II)]",increase in the Trp fluorescence,,cell death [3]: induces cell death; red shift of the emission maximum position [1]: 10 nm
Nc1ncnc2[nH]cnc12 [adenine],fluorescence quenching,,Kd [1]: 0.38 ± 0.08 µM
